Data as given in patent publication US20240132484A1, “BROAD SPECTRUM ANTIVIRAL COMPOUNDS TARGETING THE SKI COMPLEX” (priority 2020, published 2024).
“And” between values parts separate entries of the source, which are not always exact repeats. Equal entries are not always repeated. Where two headings read alike, the source gives them in different places.

Key:
[1] = system: SARS2; assay type: cell-based, SARS-CoV-2; conditions: for Infection Data, Percentage Infection Relative to Appropriate DMSO Control with Avg Background Subtraction: duplicate wells, listed as SICLS62; for Infection Data, Average, Mean (Percentage Infection Relative to Appropriate DMSO Control): average of Exp 1 and Exp 2, n=4; for Percentage Inhibition Average 1 μM / Screening data (Relative infection to DMSO controls) Average 1 μM: SARS2, 1 μM; for Screening data (Relative infection to DMSO controls) Average 1 μM / Screening data (Relative infection to DMSO controls) Average 5 μM / Screening data (Relative infection to DMSO controls) Average 10 μM / Screening data (Relative infection to DMSO controls) Average 25 μM / Screening data (Relative infection to DMSO controls) Average 50 μM / Average (relative infection to DMSO over the 5 tested concentrations): 100=DMSO control; for Percentage Inhibition Average 5 μM / Screening data (Relative infection to DMSO controls) Average 5 μM: SARS2, 5 μM; for Percentage Inhibition Average 10 μM / Screening data (Relative infection to DMSO controls) Average 10 μM: SARS2, 10 μM; for Percentage Inhibition Average 25 μM / Screening data (Relative infection to DMSO controls) Average 25 μM: SARS2, 25 μM; for Percentage Inhibition Average 50 μM / Screening data (Relative infection to DMSO controls) Average 50 μM: SARS2, 50 μM; for Average (relative infection to DMSO over the 5 tested concentrations): SARS2, average over 1 to 50 uM
[2] = system: cells (nuclei count); conditions: for Toxicity Data, Average, Mean (percentage relative to appropriate DMSO control): average of Exp 1 and Exp 2, n=4; for Relative cell count to DMSO controls, Average 1 μM / Relative cell count to DMSO controls, Average 5 μM / Relative cell count to DMSO controls, Average 10 μM / Relative cell count to DMSO controls, Average 25 μM / Relative cell count to DMSO controls, Average 50 μM: toxicity data, 100=DMSO control; for Relative cell count to DMSO controls, Average (for correlation analysis): average value over the 5 tested concentrations (1 to 50 uM)

Row | SMILES | Percentage Inhibition Average 1 μM [1] | Screening data (Relative infection to DMSO controls) Average 1 μM [1] | Percentage Inhibition Average 5 μM [1] | Screening data (Relative infection to DMSO controls) Average 5 μM [1] | Percentage Inhibition Average 10 μM [1] | Screening data (Relative infection to DMSO controls) Average 10 μM [1] | Percentage Inhibition Average 25 μM [1] | Screening data (Relative infection to DMSO controls) Average 25 μM [1] | Percentage Inhibition Average 50 μM [1] | Screening data (Relative infection to DMSO controls) Average 50 μM [1] | Average (relative infection to DMSO over the 5 tested concentrations) [1] | Relative cell count to DMSO controls, Average 1 μM [2] | Relative cell count to DMSO controls, Average 5 μM [2] | Relative cell count to DMSO controls, Average 10 μM [2] | Relative cell count to DMSO controls, Average 25 μM [2] | Relative cell count to DMSO controls, Average 50 μM [2] | Relative cell count to DMSO controls, Average (for correlation analysis) [2] | further results
1 | CC1=C(C(=O)NCC2CCC2)C(c2cccs2)NC(=O)N1 (centres unmarked) [SILCS62] | 31.86% | 68.14 | 69.63% | 30.37 | 53.65% | 46.35 | 48.59% | 51.41 | 76.12% | 23.88 | 44.03 | 112.47 | 123.92 | 116.29 | 106.51 | 98.08 | 111.45 | Infection Data, Percentage Infection Relative to Appropriate DMSO Control with Avg Background Subtraction ([1]; 1 uM, Exp 1 (SMW506)): 84.10% and 102.05%; Infection Data, Percentage Infection Relative to Appropriate DMSO Control with Avg Background Subtraction ([1]; 1 uM, Exp 2 (SMW492), SILCS 61-66 and 67-72 plates): 50.01% and 36.38%; Infection Data, Average, Mean (Percentage Infection Relative to Appropriate DMSO Control) ([1]; 1 uM): 68.14%; Infection Data, Percentage Infection Relative to Appropriate DMSO Control with Avg Background Subtraction ([1]; 5 uM, Exp 1 (SMW506)): 45.05% and 53.24%; Infection Data, Percentage Infection Relative to Appropriate DMSO Control with Avg Background Subtraction ([1]; 5 uM, Exp 2 (SMW492), SILCS 61-66 and 67-72 plates): 9.05% and 14.15%; Infection Data, Average, Mean (Percentage Infection Relative to Appropriate DMSO Control) ([1]; 5 uM): 30.37%; Infection Data, Percentage Infection Relative to Appropriate DMSO Control with Avg Background Subtraction ([1]; 10 uM, Exp 1 (SMW506)): 84.98% and 89.35%; Infection Data, Percentage Infection Relative to Appropriate DMSO Control with Avg Background Subtraction ([1]; 10 uM, Exp 2 (SMW492), SILCS 61-66 and 67-72 plates): 5.57% and 5.50%; Infection Data, Average, Mean (Percentage Infection Relative to Appropriate DMSO Control) ([1]; 10 uM): 46.35%; Infection Data, Percentage Infection Relative to Appropriate DMSO Control with Avg Background Subtraction ([1]; 25 uM, Exp 1 (SMW506)): 83.54% and 119.74%; Infection Data, Percentage Infection Relative to Appropriate DMSO Control with Avg Background Subtraction ([1]; 25 uM, Exp 2 (SMW492), SILCS 61-66 and 67-72 plates): 1.62% and 0.75%; Infection Data, Average, Mean (Percentage Infection Relative to Appropriate DMSO Control) ([1]; 25 uM): 51.41%; Infection Data, Percentage Infection Relative to Appropriate DMSO Control with Avg Background Subtraction ([1]; 50 uM, Exp 2 (SMW492), SILCS 61-66 and 67-72 plates): −0.82% and 2.34%; Infection Data, Average, Mean (Percentage Infection Relative to Appropriate DMSO Control) ([1]; 50 uM): 23.88%; Toxicity Data, Average, Mean (percentage relative to appropriate DMSO control) ([2]; 1 uM): 112.47%; Toxicity Data, Average, Mean (percentage relative to appropriate DMSO control) ([2]; 5 uM): 123.92%; Toxicity Data, Average, Mean (percentage relative to appropriate DMSO control) ([2]; 10 uM): 116.29%; Toxicity Data, Average, Mean (percentage relative to appropriate DMSO control) ([2]; 25 uM): 106.51%; Toxicity Data, Average, Mean (percentage relative to appropriate DMSO control) ([2]; 50 uM): 98.08%
2 | COc1ccc(C2NC(=O)NC(C)=C2C(=O)NCC2CCCCC2)cc1OC (centres unmarked) [SILCS63] | 19.08% | 80.92 | 53.97% | 46.03 | 7.81% | 92.19 | −18.04% | 118.04 | −21.48% | 121.48 | 91.73 | 106.9 | 114.55 | 101.91 | 91.46 | 78.57 | 98.68 | 
3 | COc1ccc(C2NC(=O)NC(C)=C2C(=O)NCC2CCC2)cc1OC (centres unmarked) [SILCS64] | 20.42% | 79.58 | 66.48% | 33.52 | −11.17% | 111.17 | −30.68% | 130.68 | −58.69% | 158.69 | 102.73 | 103.13 | 119.2 | 92.78 | 84.89 | 75.66 | 95.13 | 
4 | CCCCCCCCNC(=O)C1=C(C)NC(=O)NC1c1ccc(OC)c(OC)c1 (centres unmarked) [SILCS65] | 12.85% | 87.15 | 42.13% | 57.87 | −8.68% | 108.68 | −33.09% | 133.09 | −46.13% | 146.13 | 106.58 | 104.64 | 115.73 | 98.27 | 89.35 | 75.91 | 96.78 | 
5 | CC1=C(C(=O)NCc2ccccc2)C(c2scc3c2OCCO3)NC(=O)N1 (centres unmarked) [SILCS66] | −3.65% | 103.65 | 38.92% | 61.08 | −7.16% | 107.16 | −12.41% | 112.41 | −28.18% | 128.18 | 102.50 | 98.81 | 109.01 | 93.98 | 90.79 | 84.65 | 95.45 | 
6 | CC1=C(C(=O)NCC2CCCCC2)C(c2cc(C)c(Br)s2)NC(=O)N1 (centres unmarked) [SILCS68] | 32.72% | 67.28 | 28.63% | 71.37 | 16.60% | 83.40 | −10.69% | 110.69 | 20.80% | 79.20 | 82.39 | 117.26 | 114.63 | 110.48 | 100.14 | 91.82 | 106.87 | 
7 | CC1=C(C(=O)NCc2ccccc2)C(c2ccc(C)o2)NC(=O)N1 (centres unmarked) [SILCS69] | 44.23% | 55.77 | 29.45% | 70.55 | 24.51% | 75.49 | −26.06% | 126.06 | −48.18% | 148.18 | 95.21 | 114.56 | 113.8 | 108.32 | 93.65 | 79.5 | 101.97 | 
8 | CC1=C(C(=O)NCC2CCCCC2)C(c2cccs2)NC(=O)N1 (centres unmarked) [SILCS70] | 71.98% | 28.02 | 38.83% | 61.17 | 10.99% | 89.01 | −45.91% | 145.91 | −47.89% | 147.89 | 94.40 | 130.04 | 111.32 | 104.3 | 93.9 | 79.59 | 103.83 | 
